Drawing on PubChem BioAssay (NCI), this text covers GI50 and TGI for six compounds.

Molecules are shown by their SMILES. Where “and” joins values, the source holds several entries; their conditions need not be identical. Identical values can stand only once.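 Growth conditions: 96-well plates. Treatment: test compound, 48 hours, 5 concentrations. Analysis: linear interpolation between bracketing concentrations; unreached endpoints set to highest concentration. GI50 marks 50% less growth. The concentration for full growth arrest is given as TGI.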 Where a SMILES comes first, the peptide text is derived from it. [ ]: non-standard residue; d: D form. The star is where a group is joined. Bn2Val = CC(C)[C@@H](C(=O)*)N(Cc1ccccc1)Cc1ccccc1; NH(3,4-diMeO-benzyl) = COc1ccc(CN*)cc1OC; NMeV = CN[C@H](C(=O)O)C(C)C; dNMeA = CN[C@H](C)C(=O)O

Holding throughout (assay): inhibition of tumour cell growth, NCI panel, 48 h
Assay [1] has as its system SN12C renal.
Assay [2] concerns HOP-62 NSCLC.
The test system of assay [3] is MOLT-4 leukemia.
Assay [4] has as its system SW-620 colon.
Assay [5] has as its system EKVX NSCLC.
Assay [6] deals with SK-MEL-5 melanoma.
The subject of assay [7] is SK-OV-3 ovarian.
Assay [8] has as its system NCI-H522 lung.
Assay [9] relates to HL-60(TB) leukemia.
Assay [10] deals with HT29 colon.

Consider `COc1ccc(CNC(=O)[C@@H](C)N(C)C(=O)[C@@H]2CCCN2C(=O)[C@H](C(C)C)N(C)C(=O)[C@@H](NC(=O)[C@H](C(C)C)N(Cc2ccccc2)Cc2ccccc2)C(C)C)cc1OC` (Bn2Val-V[NMeV]P[dNMeA]-{NH(3,4-diMeO-benzyl)}), for which the GI50 in assay [1] was 10 µM; in [2], 14.7 µM; in assay [3], 0.475 µM; in [5], 10.4 µM; in assay [7] it was 23.6 µM; in assay [8], 9.05 µM. Moreover, in assay [10], the GI50 is 3.08 µM. Also, the TGI in [1] was 17.2 µM and 22.2 µM; in [2] it was 16.5 µM and 33.4 µM; in assay [3], 23.9 µM and 11.7 µM; in [4], 41.7 µM and 38 µM; in [5] it was 50 µM and 49.1 µM; in assay [6], 12.1 µM. Further, the TGI was 36.3 µM and 96.7 µM in assay [7]; 10.7 µM and 45.1 µM in [8]; 11 µM and 9.45 µM in assay [9]; 12.2 µM and 10.6 µM in [10].

For `O=C1CC[C@H]2CNC(=O)C[C@H]2C1`, the TGI in assay [1], in assay [2], in assay [3], in assay [4], in [5] and in assay [6] was more than 100 µM each time. The TGI in [7], in assay [8], in [9] and in assay [10] was more than 100 µM each time.

For the compound `COc1cccc(-c2nn(-c3ccccc3)cc2-c2ccnc(NCCCNS(=O)(=O)c3cccc(F)c3)c2)c1`, the GI50 in assay [1] was 5.37 µM; in assay [2] it was 10.4 µM; in [3], 2.64 µM; in [4] it was 5.54 µM; in assay [5], 2.79 µM; in assay [6], 1.86 µM. In addition, the GI50 in assay [7] was 3.18 µM; in assay [8], 2.05 µM; in assay [9] it was 3.52 µM; in assay [10], 2.87 µM. Moreover, the TGI in assay [1] was more than 100 µM; in assay [2], more than 100 µM; in assay [3] it was 8 µM; in assay [4], more than 100 µM; in assay [5], more than 100 µM; in [6], 3.77 µM. The TGI in [7] is more than 100 µM; in [8], 21.2 µM; in assay [9], 24.7 µM; in assay [10] it was 18.8 µM.

Take `CCCCCCCCCCCCOC1C(CNCC2OC3OC(C)(C)OC3C2NC(=O)Nc2ccc(C(=O)OCC)cc2)OC2OC(C)(C)OC21` (configuration not stated): the GI50 in [1] is 1.96 µM; in assay [2], 3.55 µM; in assay [3] it was 3.39 µM; in assay [4], 1.75 µM; in assay [5] it was 6.08 µM; in [6] it was 2.05 µM. Moreover, the GI50 in assay [7] is 10.4 µM; in assay [8] it was 2.04 µM; in [9], 2.65 µM; in assay [10] it was 1.71 µM. Further, the TGI was found to be 3.74 µM in [1]; 13.5 µM in assay [2]; 8.43 µM in [3]; 3.29 µM in assay [4]; 18.9 µM in assay [5]; 4.13 µM in [6]. Also, the TGI in assay [7] came to 23.3 µM; in [8], 3.78 µM; in assay [9] it was 5.9 µM; in assay [10], 3.56 µM.

For the compound `C[C@@H]1Cc2c([nH]c3ccccc23)[C@@H](c2c(F)cc(/C=C/C(=O)O)cc2F)N1CC(C)(C)F`, the GI50 in [1] is 11.9 µM; in [2], 15.5 µM; in [3], 11.2 µM; in assay [4], 12.5 µM; in [5] it was 12.7 µM; in assay [6], 10.7 µM. Moreover, the GI50 was 18.6 µM in assay [7], 14 µM in [8], 15.8 µM in assay [9] and 14.5 µM in assay [10]. For the same compound, the TGI came to 38.3 µM in [1]; 31.7 µM in assay [2]; 34.9 µM in assay [3]; 29 µM in assay [4]; 39.2 µM in [5]; 24.4 µM in [6]. Moreover, the TGI in assay [7] was 36.7 µM; in assay [8], 33.6 µM; in [9], 39.4 µM; in assay [10] it was 31.3 µM.

On to `COc1ccccc1NC(=O)c1ccc(/C=C/C(=O)c2nccn2C)cc1`, for which the GI50 in [1] was 0.592 µM; in [2], 0.762 µM; in [3] it was 0.711 µM; in [4] it was 0.473 µM; in [5], 0.591 µM; in assay [6] it was 0.648 µM. Moreover, the GI50 in assay [7] is 1.06 µM; in assay [8], 0.584 µM; in [9], 0.547 µM; in assay [10], 0.644 µM. In addition, the TGI in assay [1] amounted to 1.56 µM; in assay [2] it was 2.37 µM; in [3], 2.22 µM; in assay [4] it was 1.22 µM; in [5], 1.89 µM; in assay [6], 1.68 µM. For the same compound, the TGI in [7] stood at 10.7 µM; in assay [8] it was 1.52 µM; in [9] it was 1.41 µM; in assay [10], 1.78 µM.
